pIC50: −log10 of the molar value. ≈ marks a conversion by molar mass, not a printed value. Where “and” joins values, the source holds several entries; their conditions need not be identical. Equal entries are not always repeated.
What was measured:
CaM kinase II = CaM kinase II (Homo sapiens, UniProt Q13557+Q13555+Q13554+Q9UQM7); experiment: Inhibitory activity against Calcium/calmodulin-dependent protein kinase type II; format: protein assay
[1] = target: Cyclin-dependent kinase 2/cyclin E (Homo sapiens, UniProt P24941); experiment: Inhibitory activity against Cyclin E-cyclin-dependent kinase 2 in enzymatic assay by measuring phosphorylation of RbING; format: protein-complex assay
[2] = target: T1, Cyclin-dependent kinase 4/cyclin D1 (Homo sapiens, UniProt P11802); experiment: Inhibitory activity against Cyclin D1-cyclin-dependent kinase 4 in enzymatic assay by measuring phosphorylation of Rb21; format: protein-complex assay
T1 sequence (P11802 whole entry): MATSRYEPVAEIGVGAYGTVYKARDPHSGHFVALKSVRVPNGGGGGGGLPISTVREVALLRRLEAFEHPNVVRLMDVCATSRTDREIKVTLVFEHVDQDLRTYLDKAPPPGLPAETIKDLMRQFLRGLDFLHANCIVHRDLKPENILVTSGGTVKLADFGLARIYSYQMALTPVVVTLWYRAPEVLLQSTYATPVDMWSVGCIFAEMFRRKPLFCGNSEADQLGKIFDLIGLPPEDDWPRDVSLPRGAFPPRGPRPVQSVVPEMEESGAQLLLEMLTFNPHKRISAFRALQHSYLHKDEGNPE
T1 sequence (P24385 whole entry, further chain): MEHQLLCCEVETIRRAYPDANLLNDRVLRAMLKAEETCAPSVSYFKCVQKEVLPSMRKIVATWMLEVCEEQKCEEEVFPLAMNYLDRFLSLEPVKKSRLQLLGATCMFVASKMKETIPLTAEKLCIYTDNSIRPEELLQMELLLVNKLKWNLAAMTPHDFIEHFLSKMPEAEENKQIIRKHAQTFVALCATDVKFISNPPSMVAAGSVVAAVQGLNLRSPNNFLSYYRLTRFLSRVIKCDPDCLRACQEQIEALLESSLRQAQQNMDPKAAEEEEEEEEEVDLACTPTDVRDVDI

[3] = target: T1, Cyclin-dependent kinase 4/cyclin D1; experiment: Inhibitory activity against Cyclin D1-cyclin-dependent kinase 4 in enzymatic assay by measuring phosphorylation of RbING; format: protein-complex assay
HCT-116 [4] = experiment: GI arrest (1 fold increase over control) in HCT116 cells was determined by flow cytometry after 24 hr incubation; format: functional, Homo sapiens
HCT-116 [5] = experiment: GI arrest (3 fold increase over control) in HCT116 cells was determined by flow cytometry after 24 hr incubation; format: functional, Homo sapiens
HCT-116 [6] = experiment: In vitro antiproliferative activity against human carcinoma cell line HCT116 (colon); format: functional, cell-based
[7] = target: Cyclin-dependent kinase 4 (Homo sapiens) (UniProt P11802); experiment: Inhibition of Rb phosphorylation at the CDK4 specific Ser780 residue (1 fold increase over control) after 24 hr incubation in HCT116 cells; format: functional, cell-based; settings: HCT-116, concentration not given here
Cyclin-dependent kinase 4 (Homo sapiens), sequence (P11802 whole entry): as the sequence (P11802 whole entry) above

[8] = target: Cyclin-dependent kinase 4 (Homo sapiens) (UniProt P11802); experiment: Inhibition of Rb phosphorylation at the CDK4 specific Ser780 residue (3 fold increase over control) after 24 hr incubation in HCT116 cells; format: functional, cell-based; settings: HCT-116, concentration not given here
NCI-H460 = experiment: In vitro antiproliferative activity against human carcinoma cell line H460 (lung); format: functional, cell-based
[9] = target: cAMP-dependent protein kinase (PKA) (Homo sapiens, UniProt P22694+P17612+P22612); experiment: Inhibitory activity against Protein kinase A (Histone); format: protein assay
[10] = Aqueous solubility (in situ) in D5W after 1 week was determined; format: physicochemical; settings: D5W

Row | IC50 (CaM kinase II) [nM] | pIC50 [1] | pIC50 [2] | pIC50 [3] | pIC50 (HCT-116 [6]) | inhibition [7] | inhibition [8] | pIC50 (NCI-H460) | IC50 [9] [nM] | solubility at 168 h [10] [µg/mL] | Structure (SMILES) | Fold increase (HCT-116 [4]) | Fold increase (HCT-116 [5])
1 |  | 7.17 | 7.74 | 7.49 | 5.72 | 56% | 77% | 6.16 |  |  | COc1cc2ccn(C)c2c2c3c(c4c5ccccc5[nH]c4c12)C(=O)NC3=O | 1.8 | 2.1
2 | 95 | 6.58 | 8.00 | 7.48 | 6.77 |  |  | 6.48 | 6120 |  | Cn1ccc2ccc3c4[nH]c5c(CCNCCO)cccc5c4c4c(c3c21)C(=O)NC4=O |  | 
3 | 177 | 5.89 | 7.82 | 7.27 | 5.79 |  |  | 5.72 | > 20000 | 8700 (≈ 19.2 mM) | Cn1ccc2ccc3c4[nH]c5c(CCN6CCOCC6)cccc5c4c4c(c3c21)C(=O)NC4=O [listing 1 of 2 here] | 1.5 | 2.2
4 | 174 | 5.82 | 7.62 | 7.47 | 6.02 |  |  | 6.43 | 14100 |  | CCN(CC)CCCc1cccc2c1[nH]c1c3ccc4ccn(C)c4c3c3c(c21)C(=O)NC3=O |  | 
5 |  |  | 8.05 | 7.48 | 6.17 | 37% | 95% | 5.97 | 2350 |  | Cn1ccc2ccc3c4[nH]c5cc(O)ccc5c4c4c(c3c21)C(=O)NC4=O | 2.2 | 
6 | 90 | 6.16 | 7.64 | 7.41 | 6.38 |  |  | 6.68 | 4580 |  | Cn1ccc2ccc3c4[nH]c5c(CCN6CCC[C@H]6CO)cccc5c4c4c(c3c21)C(=O)NC4=O [listing 1 of 2 here] |  | 
7 |  |  |  |  |  | 57% and 69% | 88% and 80% |  |  |  | Cn1ccc2ccc3c4[nH]c5c(CCN6CCOCC6)cccc5c4c4c(c3c21)C(=O)NC4=O [listing 2 of 2 here] |  | 
8 | 266 | 6.25 | 7.72 | 7.40 | 6.11 |  |  | 5.96 | 8310 |  | Cn1ccc2ccc3c4[nH]c5c(CCCNCCO)cccc5c4c4c(c3c21)C(=O)NC4=O |  | 
9 |  |  |  |  |  | 65% | 73% |  |  |  | Cn1ccc2ccc3c4[nH]c5c(CCN6CCC[C@H]6CO)cccc5c4c4c(c3c21)C(=O)NC4=O [listing 2 of 2 here] |  | 
10 |  | 6.95 | 8.22 | 7.28 | 5.74 | 90% | 97% | 5.96 | > 20000 |  | COc1ccc2c(c1)[nH]c1c3ccc4ccn(C)c4c3c3c(c21)C(=O)NC3=O | 2.6 | 

More lines, now with the values behind:

Row | Structure (SMILES) | IC50 (CaM kinase II) [nM] | pIC50 [1] | pIC50 [2] | pIC50 [3] | pIC50 (HCT-116 [6]) | inhibition [7] | inhibition [8] | pIC50 (NCI-H460) | IC50 [9] [nM] | solubility at 168 h [10] [µg/mL] | Fold increase (HCT-116 [4]) | Fold increase (HCT-116 [5])
11 | Cn1ccc2ccc3c4[nH]c5c(CCN6CCC(C(N)=O)CC6)cccc5c4c4c(c3c21)C(=O)NC4=O | 25 | 6.10 | 8.30 | 7.29 | 6.00 | 52% | 55% | 5.87 | 5890 |  | 1.9 | 2.2
12 | Cl.Cn1ccc2ccc3c4[nH]c5c(CCN6CCOCC6)cccc5c4c4c(c3c21)C(=O)NC4=O |  |  |  |  |  |  |  |  |  |  | 1.2 | 2.3
13 | Cn1ccc2ccc3c4[nH]c5c(CCN6CCC(O)CC6)cccc5c4c4c(c3c21)C(=O)NC4=O |  |  |  |  |  | 68% | 69% |  |  |  |  | 
14 | Cn1ccc2ccc3c4[nH]c5c(CCN6CCC(O)CC6)cccc5c4c4c(c3c21)C(=O)NC4=O.O=C(O)C(F)(F)F |  |  |  |  |  |  |  |  |  |  | 1.8 | 
15 | COc1ccc2c3c4c(c5c(ccc6ccn(C)c65)c3n(CCCN3CCSCC3)c2c1)C(=O)NC4=O | > 20000 | 5.90 | 7.33 | 6.72 | 5.69 |  |  | 5.68 | > 20000 |  |  | 
16 | COc1ccc2c3c4c(c5c(ccc6ccn(C)c65)c3n(CCCN3CCN(C)CC3)c2c1)C(=O)NC4=O | 11600 | 5.91 | 7.85 | 7.02 | 6.35 |  |  | 6.05 | 2930 |  |  | 
17 | Cn1ccc2ccc3c4[nH]c5c(CCCN6CCOCC6)cccc5c4c4c(c3c21)C(=O)NC4=O | 516 | 5.88 | 7.37 | 7.25 | 5.55 |  |  | 5.77 | > 20000 |  |  | 
18 | Cn1ccc2ccc3c4[nH]c5c(CCN6CCCCC6)cccc5c4c4c(c3c21)C(=O)NC4=O | 62 | 5.97 |  | 7.35 | 5.67 | 69% | 78% | 5.61 | 9140 | 8500 (≈ 18.9 mM) | 1.8 | 2.1
19 | Cn1ccc2ccc3c4[nH]c5c(CCN[C@H]6CC[C@H](O)CC6)cccc5c4c4c(c3c21)C(=O)NC4=O | 49 | 6.35 | 8.30 | 7.28 | 5.91 | 78% | 87% | 5.55 | 9810 |  | 2 | 
20 | Cn1ccc2ccc3c4[nH]c5c(CCN6CCSCC6)cccc5c4c4c(c3c21)C(=O)NC4=O | 403 | 5.74 | 7.62 | 7.09 | 5.47 |  |  | 5.47 | > 20000 |  |  | 
21 | COc1ccc2c3c4c(c5c(ccc6ccn(C)c65)c3n(CCNCCO)c2c1)C(=O)NC4=O | 527 | 7.05 | 7.68 | 7.46 | 5.83 | 71% | 92% | 5.88 | 3740 | 6000 (≈ 13.1 mM) | 3.1 | 
22 | COc1ccc2c3c4c(c5c(ccc6ccn(C)c65)c3n(CCN3CCC[C@H]3CO)c2c1)C(=O)NC4=O | 6120 | 6.03 | 7.64 | 7.08 | 5.57 |  |  | 5.42 | > 20000 |  |  | 
23 | Cn1ccc2ccc3c4[nH]c5c(CCN6CCNCC6)cccc5c4c4c(c3c21)C(=O)NC4=O | 301 | 5.69 | 7.82 | 7.31 | 5.98 |  |  | 5.95 | 12900 |  |  | 
24 | COc1ccc2c3c4c(c5c(ccc6ccn(C)c65)c3n(CCCO)c2c1)C(=O)NC4=O |  | 6.95 | 7.92 | 7.27 | 5.79 | 66% | 95% | 6.30 | 1040 |  | 2.4 | 
25 | Cn1ccc2ccc3c4[nH]c5c(CCN6CCC[C@H]6CO)cccc5c4c4c(c3c21)C(=O)NC4=O.O=C(O)C(F)(F)F |  |  |  |  |  |  |  |  |  |  | 1.5 | 
26 | COc1ccc2c3c4c(c5c(ccc6ccn(C)c65)c3n(CCCN3CCOCC3)c2c1)C(=O)NC4=O | > 20000 | 6.15 | 7.68 | 7.16 | 5.77 |  |  | 5.79 | > 20000 |  |  | 
